# Laboratory results taken from publication PMC9290910, “Neuropilin‐1 is required for endothelial cell adhesion to soluble vascular endothelial growth factor receptor 1” (The Febs Journal, 2021).
# Where no end group is shown, it is not given here.
# Legend:
# α5β1 integrin = test system: α5β1 integrin; design: method as in 2 sources, one per row (each row's own in cited_ref): ref 34, 36 = [34]; PMID 18184864; doi:10.1182/blood-2007-03-077537; 34 Soro S , Orecchia A , Morbidelli L , Lacal PM , Morea V , Ballmer‐Hofer K , Ruffini F , Ziche M , D'Atri S , Zambruno G et al . ( 2008 ) A proangiogenic peptide derived from vascular endothelial gr || [36]; PMID 18682321; doi:10.1016/j.ejca.2008.06.032; 36 Lacal PM , Morea V , Ruffini F , Orecchia A , Dorio AS , Failla CM , Soro S , Tentori L , Zambruno G , Graziani G et al . ( 2008 ) Inhibition of endothelial cell migration and angiogenesis by a vas ||| ref 34 = [34]; PMID 18184864; doi:10.1182/blood-2007-03-077537; 34 Soro S , Orecchia A , Morbidelli L , Lacal PM , Morea V , Ballmer‐Hofer K , Ruffini F , Ziche M , D'Atri S , Zambruno G et al . ( 2008 ) A proangiogenic peptide derived from vascular endothelial gr; details: cited from earlier work
# angiogenesis = details: cited from earlier work
# Excerpt: (§1) To dissect whether interaction of NRP‐1 with the transmembrane or the soluble isoform of VEGFR‐1 was required for EC adhesion to sVEGFR‐1, we performed EC adhesion assays by substituting sVEGFR‐1 with a different adhesion substrate, named peptide 12.
# [1] = test system: EC (HUVEC) adhesion to peptide 12; details: cited from earlier work
# Excerpt: as §1
# [2] = test system: α5β1 integrin signalling in ECs; test: Signalling activated by EC adhesion; format: cell-based; details: myristoylated alanine‐rich C‐kinase substrate up-regulation, Rac1 activation; data not shown
# [3] = test system: EC (HUVEC) adhesion to peptide 12; test: Cell adhesion assay, EC adhesion to peptide 12; format: cell-based, human; details: plates coated with 500 µg·mL^−1 peptide 12
# Description: Human umbilical vein endothelial cells (HUVEC) were isolated from freshly delivered umbilical cords, as previously described, cultured in Endothelial Cell Growth Medium‐2 Kit from Clonetics (EGM‐2, CC4176, Lonza, Basel, Switzerland), and used up to passage 6. For functional assays, HUVEC were resuspended in Endothelial Basal Medium‐2 (EBM‐2, CC3156, Lonza). A pool of cells derived from four different individuals was used.
# Solid support for adhesion assay was prepared by incubating immunological 96‐multiwell plates with 20 µg·mL^−1 VEGFR‐1/Fc chimera, or fibronectin solubilized in PBS. After 2 h, the coating solution was removed, and the well surface was blocked with 3% BSA in PBS for 18 h, before plating ECs in serum‐free medium at 3 × 10^4 cells per well. After incubation at 37 °C for 1 h, the wells were washed with PBS and attached cells were fixed with 3% formaldehyde and stained with 0.5% crystal violet. Attachment efficiency was determined by quantitative dye extraction and spectrophotometric measurement of the absorbance at 540 nm, using a Microplate reader 3550‐UV (Bio‐Rad). In competition experiments, peptides Flt2‐11, scrambled Flt2‐11, Flt2‐8 or Flt2‐5, at 20 µg·mL^−1, were added during the adhesion assay. Adhesion to peptide 12 was carried out by using maleic anhydride activated microplates (Reacti‐Bind, Pierce, Rockford, IL, USA) coated with 500 µg·mL^−1 of the peptide.
substance,measurement,setting,value
"peptide 12: seven amino acid‐long peptide that maps on the second VEGFR‐1 Ig‐like domain (residues 219–225) (NYLTHRQ; also: biotin, position not given here)",binding to α5β1 integrin,α5β1 integrin,able to directly bind α5β1 integrin
same,pro‐angiogenic stimulus,angiogenesis,pro‐angiogenic stimulus
same,support of EC adhesion by peptide 12,[1],support EC adhesion
same,signalling pathway activation by EC adhesion to peptide 12,[2],also activated
same,EC adhesion to peptide 12 in the absence of NRP‐1,[3],ECs adhere to peptide 12 in the absence of NRP‐1
